Converted amounts (≈) assume the structure as drawn. Blank lines part the entries; values can stand above or below the compound they belong to. The source made the active and inactive calls. No cut-off for these calls is given here.
Key:
Mus musculus [1] = test: Antiinflammatory activity in LPS-induced C57BL/6 mouse model of […] assessed as inhibition of IL6 expression in lung tissue at 2.5 to 10 mg/kg, ip pretreated with compound for 30 mins followed by LPS stimulation and measured after 6 hrs by qRT-PCR analysis; format: functional, organism-based; settings: dose 2.5-10 mg/kg, time 390.0 min
Mus musculus [2] = test: Antiinflammatory activity in LPS-induced C57BL/6 mouse model of […] assessed as Nrf2 nuclear translocation in lung tissue at 2.5 to 10 mg/kg, ip pretreated with compound for 30 mins followed by LPS stimulation and measured after 6 hrs by Western blotting analysis; format: functional, organism-based; settings: dose 2.5-10 mg/kg, time 390.0 min
Mus musculus [3] = test: (§1) Antiinflammatory activity in LPS-induced C57BL/6 mouse model of […] assessed as reduction in congestion in lung tissue at 2.5 to 10 mg/kg, ip pretreated with compound for 30 mins followed by LPS stimulation and measured after 6 hrs by hematoxylin and eosin staining method; format: functional, organism-based; settings: dose 2.5-10 mg/kg, time 390.0 min
Peritoneal macrophage [4] = test: Antiinflammatory activity in mouse peritoneal macrophages assessed as reduction in LPS-induced IL6 level at 10 uM incubated for 4 hrs by ELISA method; format: functional, cell-based
Mus musculus [5] = test: Antiinflammatory activity in LPS-induced C57BL/6 mouse model of […] assessed as inhibition of IL1beta level in BALF administered intraperitoneally pretreated with compound for 30 mins followed by LPS stimulation and measured after 6 hrs by ELISA method; format: functional, organism-based; settings: dose 2.5-10 mg/kg, route ip, time 390.0 min
Mus musculus [6] = test: Antiinflammatory activity in LPS-induced C57BL/6 mouse model of […] assessed as inhibition of TNFalpha level in BALF administered intraperitoneally pretreated with compound for 30 mins followed by LPS stimulation and measured after 6 hrs by ELISA method; format: functional, organism-based; settings: dose 2.5-10 mg/kg, route ip, time 390.0 min
[7] = target: Keap1/Nrf2 (Homo sapiens) (UniProt Q16236+Q14145); test: Binding affinity to human Keap1-Nrf2 protein-protein interaction assessed as dissociation constant (Kd2) incubated for 60 mins by fluorescent polarization assay
Keap1/Nrf2 (Homo sapiens), sequence (Q14145 whole entry, looked up): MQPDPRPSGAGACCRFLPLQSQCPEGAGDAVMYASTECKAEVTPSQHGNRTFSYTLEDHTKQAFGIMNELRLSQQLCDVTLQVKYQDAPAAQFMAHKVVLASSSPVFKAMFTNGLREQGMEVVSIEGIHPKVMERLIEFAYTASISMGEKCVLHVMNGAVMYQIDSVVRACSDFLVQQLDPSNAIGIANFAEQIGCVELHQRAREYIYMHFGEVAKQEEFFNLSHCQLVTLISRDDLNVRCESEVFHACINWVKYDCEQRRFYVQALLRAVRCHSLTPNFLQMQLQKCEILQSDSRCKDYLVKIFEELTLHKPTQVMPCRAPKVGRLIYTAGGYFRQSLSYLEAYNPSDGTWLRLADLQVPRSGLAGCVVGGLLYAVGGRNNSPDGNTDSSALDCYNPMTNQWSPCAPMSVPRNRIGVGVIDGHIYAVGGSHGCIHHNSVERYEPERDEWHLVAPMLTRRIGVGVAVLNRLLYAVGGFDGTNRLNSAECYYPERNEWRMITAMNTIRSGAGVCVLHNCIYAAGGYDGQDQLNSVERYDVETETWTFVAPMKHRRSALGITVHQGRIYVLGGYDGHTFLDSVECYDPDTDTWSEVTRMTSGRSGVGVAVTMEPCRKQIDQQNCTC
Keap1/Nrf2 (Homo sapiens), sequence (Q16236 whole entry, looked up): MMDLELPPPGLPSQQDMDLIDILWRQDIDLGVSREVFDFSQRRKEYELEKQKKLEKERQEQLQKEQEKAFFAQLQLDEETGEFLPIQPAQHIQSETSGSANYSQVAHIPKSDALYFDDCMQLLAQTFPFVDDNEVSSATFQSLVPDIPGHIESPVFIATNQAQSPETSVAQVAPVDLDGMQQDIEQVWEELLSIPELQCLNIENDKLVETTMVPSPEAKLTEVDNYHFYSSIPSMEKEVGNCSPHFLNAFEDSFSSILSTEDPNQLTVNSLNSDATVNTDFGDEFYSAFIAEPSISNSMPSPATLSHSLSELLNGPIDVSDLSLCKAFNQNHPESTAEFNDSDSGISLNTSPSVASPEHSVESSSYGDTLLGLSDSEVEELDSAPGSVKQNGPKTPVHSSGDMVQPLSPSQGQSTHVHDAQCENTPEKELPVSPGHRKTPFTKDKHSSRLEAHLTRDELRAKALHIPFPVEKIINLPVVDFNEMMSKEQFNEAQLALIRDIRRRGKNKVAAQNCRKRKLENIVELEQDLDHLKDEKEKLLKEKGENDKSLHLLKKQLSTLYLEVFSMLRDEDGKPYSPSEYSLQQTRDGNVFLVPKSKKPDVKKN

Mus musculus [8] = test: as §1, with “inflammatory cell infiltrations” for “congestion”; format: functional, organism-based; settings: dose 2.5-10 mg/kg, time 390.0 min
Mus musculus [9] = test: Antiinflammatory activity in LPS-induced C57BL/6 mouse model of […] assessed as reduction in bleeding points in lung tissue at 2.5 to 10 mg/kg, ip pretreated with compound for 30 mins followed by LPS stimulation and measured after 6 hrs by hematoxylin and eosin staining method; format: functional, organism-based; settings: dose 2.5-10 mg/kg, time 390.0 min
Mus musculus [10] = test: Antiinflammatory activity in LPS-induced C57BL/6 mouse model of […] assessed as inhibition of IL1beta expression in lung tissue at 2.5 to 10 mg/kg, ip pretreated with compound for 30 mins followed by LPS stimulation and measured after 6 hrs by qRT-PCR analysis; format: functional, organism-based; settings: dose 2.5-10 mg/kg, time 390.0 min
Mus musculus [11] = test: Antiinflammatory activity in LPS-induced C57BL/6 mouse model of […] assessed as inhibition of TNFalpha expression in lung tissue at 2.5 to 10 mg/kg, ip pretreated with compound for 30 mins followed by LPS stimulation and measured after 6 hrs by qRT-PCR analysis; format: functional, organism-based; settings: dose 2.5-10 mg/kg, time 390.0 min
Mus musculus [12] = test: Antiinflammatory activity in LPS-induced C57BL/6 mouse model of […] assessed as inhibition of IL6 level in BALF administered intraperitoneally pretreated with compound for 30 mins followed by LPS stimulation and measured after 6 hrs by ELISA method; format: functional, organism-based; settings: dose 2.5-10 mg/kg, route ip, time 390.0 min
[13] = Oral bioavailability in Sprague-Dawley rat; format: ADME, organism-based; settings: in vivo
[14] = MRT (0 to infinity) in Sprague-Dawley rat at 20 mg/kg, ip; format: ADME, organism-based; settings: in vivo
[15] = Clearance in Sprague-Dawley rat at 20 mg/kg, ip; format: ADME, organism-based; settings: in vivo
[16] = Aqueous solubility of the compound in PBS at pH 7 at 2 mg incubated for 24 hrs by HPLC-UV analysis; format: physicochemical
[17] = MRT (0 to 24 hrs) in Sprague-Dawley rat at 5 mg/kg, iv; format: ADME, organism-based; settings: in vivo
[18] = Half life in Sprague-Dawley rat at 5 mg/kg, iv; format: ADME, organism-based; settings: in vivo
[19] = Aqueous solubility of the compound in PBS at pH 2 at 2 mg incubated for 24 hrs by HPLC-UV analysis; format: physicochemical
[20] = Clearance in Sprague-Dawley rat at 5 mg/kg, iv; format: ADME, organism-based; settings: in vivo
[21] = AUC (0 to 24 hrs) in Sprague-Dawley rat at 20 mg/kg, ip; format: ADME, organism-based; set-up: dose 20 mg/kg, route ip; settings: in vivo
[22] = Apparent volume of distribution in Sprague-Dawley rat at 5 mg/kg, iv; format: ADME, organism-based; settings: in vivo, read-out: Vz
[23] = Aqueous solubility of the compound in PBS at pH 7.4 at 2 mg incubated for 24 hrs by HPLC-UV analysis; format: physicochemical
Peritoneal macrophage [24] = test: Antiinflammatory activity in mouse peritoneal macrophages assessed as fold reduction in LPS-induced TNFalpha level at 10 uM incubated for 4 hrs by ELISA method; format: functional
[25] = Apparent volume of distribution in Sprague-Dawley rat at 20 mg/kg, ip; format: ADME, organism-based; settings: in vivo
[26] = Tmax in Sprague-Dawley rat at 20 mg/kg, ip; format: ADME, organism-based; settings: in vivo
[27] = AUC (0 to infinity) in Sprague-Dawley rat at 20 mg/kg, ip; format: ADME, organism-based; set-up: dose 20 mg/kg, route ip; settings: in vivo
[28] = MRT (0 to infinity) in Sprague-Dawley rat at 5 mg/kg, iv; format: ADME, organism-based; settings: in vivo
[29] = Cytotoxicity against mouse peritoneal macrophages assessed as reduction in cell viability incubated for 24 hrs by Cell titer-blue assay; format: toxicity, cell-based, Peritoneal macrophage
[30] = AUC (0 to infinity) in Sprague-Dawley rat at 5 mg/kg, iv; format: ADME, organism-based; set-up: dose 5 mg/kg, route iv; settings: in vivo
[31] = Half life in Sprague-Dawley rat at 20 mg/kg, ip; format: ADME, organism-based; settings: in vivo
[32] = Cmax in Sprague-Dawley rat at 20 mg/kg, ip; format: ADME, organism-based; set-up: dose 20 mg/kg, route ip; settings: in vivo
[33] = AUC (0 to 24 hrs) in Sprague-Dawley rat at 5 mg/kg, iv; format: ADME, organism-based; set-up: dose 5 mg/kg, route iv; settings: in vivo
[34] = MRT (0 to 24 hrs) in Sprague-Dawley rat at 20 mg/kg, ip; format: ADME, organism-based; settings: in vivo

K [7]: 220 nM
SMILES: COc1ccc(S(=O)(=O)N(CC(N)=O)c2ccc(N(CC(N)=O)S(=O)(=O)c3ccc(NC(=O)[C@H]4CCN4)cc3)c3ccccc23)cc1 [listing 1 of 2 here]
inhibition (Mus musculus [1]): Active
Activity (Mus musculus [2]): Active
Activity (Mus musculus [3]): Active
Activity (Peritoneal macrophage [4]): Active
inhibition (Mus musculus [5]): Dose-Dependent Effect
inhibition (Mus musculus [6]): Dose-Dependent Effect
Activity (Mus musculus [8]): Active
Activity (Mus musculus [9]): Active
inhibition (Mus musculus [10]): Active
inhibition (Mus musculus [11]): Active
inhibition (Mus musculus [12]): Dose-Dependent Effect

bioavailability [13]: 20%
SMILES: CCN1CCN(CCC(=O)Nc2ccc(S(=O)(=O)N(CC(N)=O)c3ccc(N(CC(N)=O)S(=O)(=O)c4ccc(OC)cc4)c4ccccc34)cc2)CC1.Cl

MRT inf [14]: 1.97 h
CL/F [15]: 31.8 mL/min/kg
solubility at 24 h [16]: 404 µg/mL (≈ 593 µM)
MRT last [17]: 2.83 h
half-life [18]: 12.7 h
solubility at 24 h [19]: 601 µg/mL (≈ 883 µM)
clearance [20]: 57.4 mL/min/kg
AUC(0-t) [21]: 11200 ng·h/mL
Vd [22]: 60.5 L/kg
solubility at 24 h [23]: 216 µg/mL (≈ 318 µM)
Vz [25]: 16.24474 L/kg
Tmax [26]: 0.38 h
AUC(0-inf) [27]: 11200 ng·h/mL
MRT inf [28]: 9.67 h
AUC(0-inf) [30]: 1590 ng·h/mL
half-life [31]: 5.75 h
Cmax [32]: 8430 ng/mL
AUC(0-t) [33]: 1390 ng·h/mL
MRT last [34]: 1.75 h
SMILES: COc1ccc(S(=O)(=O)N(CC(N)=O)c2ccc(N(CC(N)=O)S(=O)(=O)c3ccc(NC(=O)[C@H]4CCN4)cc3)c3ccccc23)cc1 [listing 2 of 2 here]
fold change (FC) (Peritoneal macrophage [24]): <=0.5
CC50 at 24 h [29]: > 100 µM

Source: ChEMBL document CHEMBL5338809, “Fragment-Based Discovery of Azocyclic Alkyl Naphthalenesulfonamides as Keap1-Nrf2 Inhibitors for Acute Lung Injury Treatment” (J Med Chem, 2023)
